*1 amine or outer side, *2 acyl side, *3 side chain or, on linkers, in order; H or OH if unused. Where a SMILES comes first, the peptide text is derived from it. Bridges are numbered along the chain shown (N, C = ends). Roman numbers before positions name the chains, in order. [ ]: non-standard residue; d: D form. Actinocin(9to1) = Cc1c2oc3c(C)ccc(C(=O)[*:1])c3nc-2c(C(=O)[*:2])c(N)c1=O; NMeV = CN[C@H](C(=O)O)C(C)C; Sar = CNCC(=O)O
Key:
Type in all cases: cell-based, human
[1] = system: Ca9-22 cells; experiment: Mitotic accumulation in Ca9-22 cells
Procedure: Another way in which cytotoxicity could occur is by initiating mitosis. In order to examine this possibility, different concentrations of the potent cytotoxin 1k that were 3, 10, and 30 times the CC50 value were incubated with Ca9-22 cells for 20 h. […] In order to explore the possibility that the dichloroacetyl group contributed to this effect, concentrations of 2a that were 3, 10, and 30 times the CC50 concentration were incubated with Ca9-22 cells for 20 h. […] The question arose as to the way in which this observation could be useful in anticancer drug design. Cells which are stimulated to divide are likely more sensitive to a subsequent attack of a cytotoxin when cells are in a resting stage, for example.

[2] = system: Ca9-22, HSC-2, HSC-3, and HSC-4 cells; experiment: Average cytotoxicity, selectivity and PSE over the four carcinoma lines; settings: for CC50: Homo sapiens, average over Ca9-22, HSC-2, HSC-3, HSC-4; for Average SI: average of SI over Ca9-22, HSC-2, HSC-3, HSC-4
Source text: (§1) The target cells used in our study were human oral squamous cell carcinoma cell lines Ca9-22 (purchased from RIKEN Cell Bank, Tukuba, RCB-1976), HSC-2 (RCB1945), HSC-3 (RCB1975), HSC-4 (RCB1902), and three human normal oral cells, gingival fibroblast (HGF), periodontal ligament fibroblast (HPLF), and pulp cells (HPC) [established from the first premolar extracted tooth in the lower jaw (because of dysfunctional position or orthodontic treatment) and periodontal tissues of a child, according to the guideline of the Institutional Board of Meikai University Ethics Committee (No. A0808)], after obtaining informed consent from the patients. These cells were incubated for 48 h with the indicated concentrations of test samples or reference compounds sodium dichloroacetate (purchased from Sigma-Aldrich Chemical Company, Saint Louis, MO, USA), 5-fluorouracil (5-FU) from Kyowa (Tokyo, Japan), and doxorubicin (DXR) (St. Louis, MO, USA) and vehicle (DMSO) (0.008, 0.016, 0.031, 0.063, 0.125, 0.25, 0.5, and 1%) in Dulbecco’s Modified Eagle Medium (DMEM) media, which was supplemented with 10% heat-inactivated fetal bovine serum. Cell viability was determined by the MTT method. Cytotoxicity caused by the vehicle (DMSO) was subtracted.
(§2) SI was calculated by dividing the average CC50 value (concentration of the compound to kill 50% of the cells) of the compound towards HGF, HPLF, and HPC cells by the CC50 value of the compound against a specific neoplastic cell line.
PSE reflects both the potencies and differences in cytotoxicity to neoplasms and non-malignant cells. This value was the product of the reciprocal of the average CC50 value of the compounds towards Ca9-22, HSC-2, HSC-3, and HSC-4 cells and the average SI value × 100.

[3] = system: procaspase 3; experiment: Procaspase 3 cleavage in Ca9-22 cells (Western blot); settings: for cleavage of procaspase to caspase 3: 20 h
Procedure: (§3) The effect of 20 h incubation of different concentrations of 1k and 2a with Ca9-22 cells on the cleavage of PARP and procaspase 3 cleavage was undertaken using a reported procedure. In brief, the control and treated Ca9-22 cells at near confluent phase were collected and lysed, and protein samples of cell lysates (15 µg) were applied to SDS-polyacrylamide gel electrophoresis. After electrophoresis, the separated proteins were transferred onto a PVDF (polyvinylidene fluoride) filter. The blots were treated in skim milk and then probed for 120 min with a primary antibody cocktail (1:250) from an Apoptosis Western Blot Cocktail kit (purchased from Abcam, Cambridge, UK). The blots were washed and probed with horseradish peroxidase conjugated secondary antibody cocktail (1:100). Immunoreactivities were determined using Amer-sham ECL Select. Images were acquired using ChemiDoc MP System and Image Lab 4.1 software (Bio-Rad Laboratories, Hercules, CA, USA).

[4] = Cytotoxicity (MTT, 48 h) against HPC non-malignant cells; settings: female, human, normal pulp cells (HPC), mean ± S.D. of triplicate
Source text: as §1

[5] = system: Ca9-22 squamous cell carcinoma cells; experiment: Cytotoxicity (MTT, 48 h) against Ca9-22 cells; settings: for CC50: Homo sapiens, Ca9-22, 48 h, MTT, mean ± S.D. of triplicate; for SI (Ca9-22): average CC50 towards HGF, HPLF, HPC divided by CC50 against Ca9-22
Source text: as §1, §2

[6] = system: HSC-3 squamous cell carcinoma cells; experiment: Cytotoxicity (MTT, 48 h) against HSC-3 cells; settings: for CC50: Homo sapiens, HSC-3, 48 h, MTT, mean ± S.D. of triplicate; for SI (HSC-3): average CC50 towards HGF, HPLF, HPC divided by CC50 against HSC-3
Source text: as §1, §2

[7] = system: HSC-4 squamous cell carcinoma cells; experiment: Cytotoxicity (MTT, 48 h) against HSC-4 cells; settings: for CC50: Homo sapiens, HSC-4, 48 h, MTT, mean ± S.D. of triplicate; for SI (HSC-4): average CC50 towards HGF, HPLF, HPC divided by CC50 against HSC-4
Source text: as §1, §2

[8] = Average cytotoxicity over the three non-malignant cells; settings: female, human, normal oral cells HGF, HPLF and HPC (average over the three)
Source text: as §1

[9] = Cytotoxicity (MTT, 48 h) against HPLF non-malignant cells; settings: human, normal periodontal ligament fibroblasts (HPLF), mean ± S.D. of triplicate
Source text: as §1

[10] = system: PARP; experiment: PARP cleavage in Ca9-22 cells (Western blot)
Procedure: as §3

[11] = system: Ca9-22 cells; experiment: Cell cycle assay in Ca9-22 cells; settings: 20 h; for G2M cell population: p < 0.05; for effect on the cell cycle: 0.1, 0.2, and 0.4 µM
Procedure: The evaluation of varying quantities of 1d,e,k on the cell cycle in Ca9-22 cells was undertaken by a literature method. In brief, Ca9-22 cells were treated for 20 h without (control) or with the indicated concentrations of the test samples. To neglect the cytotoxicity effect of DMSO, all samples contained 0.1% DMSO. Cells (approximately 10^6 cells) were harvested, fixed for 1 h on ice with 1% paraformaldehyde, washed twice by phosphate-buffered saline, treated for 30 min at 37 °C with 0.2 mg/mL RNase A (ribonuclease A), stained for 15 min at room temperature with 0.01% propidium iodide in the presence of 0.01% NP-40 (nonyl phenoxypolyethoxyethanol) to prevent cell aggregation, filtered through Falcon® cell strainers (pore size: 40 µm) (Corning, NY, USA), subjected to cell sorting (SH800 Series; SONY Imaging Products and Solutions Inc., Kanagawa, Japan), and then analyzed with Cell Sorter Software version 2.1.2. (SONY Imaging Products and Solutions Inc., Kanagawa, Japan).

[12] = Cytotoxicity (MTT, 48 h) against HGF non-malignant cells; settings: human, normal gingival fibroblasts (HGF), mean ± S.D. of triplicate
Source text: as §1

[13] = system: HSC-2 squamous cell carcinoma cells; experiment: Cytotoxicity (MTT, 48 h) against HSC-2 cells; settings: for CC50: Homo sapiens, HSC-2; for SI (HSC-2): average CC50 towards HGF, HPLF, HPC divided by CC50 against HSC-2
Source text: as §1, §2

[14] = 48 h, MTT, mean ± S.D. of triplicate

Row | SMILES | CC50 [2] [µM] | Average SI [2] | CC50 at 48 h [4] [µM] | CC50 [5] [µM] | CC50 [6] [µM] | SI (HSC-3) [6] | CC50 [7] [µM] | SI (HSC-4) [7] | CC50 at 48 h [8] [µM] | CC50 at 48 h [9] [µM] | G2M cell population ([11]; 0.8 µM) | effect on the cell cycle [11] | CC50 at 48 h [12] [µM] | CC50 [13, 14] [µM] | SI (HSC-2) [13] | SI (Ca9-22) [5] | also measured
1 | O=C1/C(=C/c2ccc([N+](=O)[O-])cc2)CN(C(=O)C(Cl)Cl)C/C1=C\c1ccc([N+](=O)[O-])cc1 [Compound 1k] | 0.1 | 28.1 | 0.56 ± 0.08 | 0.02 ± 0.01 | 0.1 ± 0.03 | 14.4 | 0.18 ± 0.04 | 8.00 | 1.44 | 0.76 ± 0.13 | most prominent increase | little effects | 3.01 ± 0.33 | 0.08 ± 0.01 | 18.0 |  | percentage of the cells undergoing mitosis ([1]; two highest concentrations of 3, 10, 30 times the CC50 value, 20 h): increased significantly; average potency figure relative to 5-FU (times lower) ([2]; average CC50 compared with 5-FU): 310 times; cleavage of procaspase to caspase 3 ([3]; 0.2 and 0.6 µM): cleavage of procaspase to caspase 3 was observed; PARP cleavage ([10]; 0.2 and 0.6 µM, 20 h): PARP was cleaved; subG1 population ([11]; 0.8 µM): slight increase; HSC-2 CC50 [13, 14]: double-digit nanomolar
2 | O=C1C(=Cc2ccccc2)CNCC1=Cc1ccccc1 [Compound 2a, 3,5-bis(benzylidene)-4-piperidone] | 0.54 | 30.3 | 4.3 ± 0.72 | 0.19 ± 0.03 | 0.8 ± 0.07 | 14.6 | 0.79 ± 0.22 | 14.8 | 11.7 | 9.1 ± 2.87 |  |  | 21.7 ± 6 | 0.39 ± 0.01 | 30.0 |  | mitotic accumulation ([1]; 2 µM and 6 µM, 20 h): mitotic accumulation occurred; cleavage of procaspase to caspase 3 ([3]; 2 and 6 µM): cleavage of procaspase to caspase 3 was observed; PARP cleavage ([10]; 2 and 6 µM, 20 h): PARP was cleaved
3 | Cc1c2oc3c(C)ccc(C(=O)N[C@@H]4C(=O)N[C@H](C(C)C)C(=O)N5CCC[C@H]5C(=O)N(C)CC(=O)N(C)[C@@H](C(C)C)C(=O)O[C@@H]4C)c3nc-2c(C(=O)N[C@@H]2C(=O)N[C@H](C(C)C)C(=O)N3CCC[C@H]3C(=O)N(C)CC(=O)N(C)[C@@H](C(C)C)C(=O)O[C@@H]2C)c(N)c1=O [actinomycin D, reference compound] (I: T[dV]P[Sar][NMeV] / II: T[dV]P[Sar][NMeV]; ester I:1-I:C, II:1-II:C; linker I:N-II:N via Actinocin(9to1)) |  |  |  |  |  |  |  |  |  |  |  |  |  |  |  |  | mitosis ([1]; 1 µM): Increased mitosis; procaspase 3 cleavage ([3]; 1 µM): Cleavage; PARP cleavage ([10]; 1 µM): Cleavage
4 | O=C1/C(=C/c2ccc(Cl)cc2)CN(C(=O)C(Cl)Cl)C/C1=C\c1ccc(Cl)cc1 [Compound 1d] | 0.13 | 14.7 | 0.9 ± 0.02 | 0.05 | 0.19 ± 0.02 | 7.58 | 0.18 ± 0.04 | 8.00 | 1.44 | 1.29 ± 0.14 | most prominent increase | little effects | 2.13 ± 0.12 | 0.1 ± 0.01 | 14.4 | 28.8 | 
5 | CC(=O)N1C/C(=C\c2ccccc2)C(=O)/C(=C/c2ccccc2)C1 [Compound 2b] | 1.42 | 9.58 | 4.83 ± 0.12 | 0.64 ± 0.01 | 2.25 ± 0.08 | 4.93 | 1.57 ± 0.12 | 7.07 | 11.1 | 5.6 ± 1.13 |  |  | 23 ± 1.7 | 1.23 ± 0.07 | 9.02 | 17.3 | 
